Assays:
cerebellar granule cells = assay: Whole-cell patch clamp of tonic GABA current in cerebellar granule cells; type: cell-based, mouse
Method: (§1) Brain slices were prepared as described in Rossi et al., 2003. For slice recording, either approximately P28 days old or more than 8 weeks old mice were used. Animals were deeply anesthetized with halothane. After decapitation, the brain was quickly excised from the skull and submerged in ice-cold cutting solution (in mM): 250 Sucrose, 26 NaHCO3, 10 D(+)-Glucose, 4 MgCl2, 3 myo-inositol, 2.5 KCl, 2 Sodium pyruvate, 1.25 NaH2PO4, 0.5 Ascorbic acid 0.1 CaCl2, 1 Kynurenic acid, pH 7.4. All solutions were gas-treated with 95% O2-5% CO2. After trimming both sides of vermis, several parasagittal slices with […] thicknesses containing cerebellar lobes were cut using a microtome (Leica VT 1000) and transferred to extracellular ACSF solution (in mM); 126 NaCl, 24 NaHCO3, 1 NaH2PO4, 2.5 KCl, 2.5 CaCl2, 2 MgCl2, 10 D(+)-Glucose, pH 7.4. Slices were incubated for one hour at least at room temperature.
For recording, slices were transferred to an electrophysiological recording chamber (RC-26G, Warner Instruments) which is continuously superfused with ASCF (artificial cerebrospinal fluid, sigma) solution (flow rate; 2 ml/min) and controlled by flower controller (Synaptosoft) and a vacuum pump (Charles Austen, model Capex 8C). Slice chamber was mounted on the stage of an upright microscope (Olympus, Japan) and viewed with an ×60 water immersion objective with differential interference contrast and infrared optics. Cellular morphologies were visually identified by Imaging Workbench 6.0 (INDEC Systems, Inc), camera controller (Hamamatsu, C4742-95), and light microscope controller (Olympus, TH4-200). Fluorescence images were viewed with mercury lamp (Olympus, U-RFL-T). Whole cell voltage-clamp recording was made from granular cell somata or Bergmann glial cells mostly located in 2-5 cerebellar lobules
Pipette resistance for granule cells was typically 10-12 MΩ and pipette was filled with an internal solution containing (in mM) 135 CsCl, 4 NaCl, 0.5 CaCl2, 10 HEPES, 5 EGTA, 2 Mg-ATP, 0.5 Na2-GTP, 10 QX-314, pH adjusted to 7.2 with CsOH (278-285 mOsmol) was used (Rossi, et al., 2003).
B6 wildtype, GFAP-GFP and hGFAP-CreERT2 trangenic mice (SPF room, Center for Neural Science, KIST, Seoul, Korea) were anaesthetized by intraperitoneal injection of 2% avertin (20 μl/g, sigma) and placed in a stereotaxic frame (David Kopf instrument). pSicoR-b1shRNA-mCherry or scrambled virus (Macrogen) was stereo-injected into cerebellar cortex at a rate of 0.2 μl/min (total 2 μl) using syringe pump (Harvard apparatus) and 25 μl syringe (Hamilton company). The coordination of injection site was 1.7 mm from the lambda and the depth was 1.5-1.7 mm from the skull.
The glia-specific CreERT activation was initiated by intraperitoneal injection of tamoxifen for 5 days prior to lentivirus injection (FIG. 4a,b). […] Tamoxifen or sunflower oil were injected intraperitoncally once a day for 5 days before lentivirus injection.

GABAc receptors = assay: Patch clamp of GABAc expressing HEK293 cells challenged with 100 μM GABA; type: cell-based; details: 100 μM GABA in absence or presence of 100 μM NFA and 100 μM NPPB
Method: FIGS. 7a and 7b show the results when GABAc expressing HEK293 cells were patch clamped and challenged with 100 μM GABA in the absence and presence of 100 μM NFA and 100 μM NPPB; and
In FIGS. 7a and 7b, GABAc expressing HEK293 cells were patch clamped and challenged with 100 μM GABA in the absence or presence of 100 μM NFA and 100 μM NPPB.

GABAA receptor = assay: GABA-induced whole cell current in cerebellar granule cells; type: cell-based; details: NPPB application 2 and 5 min; wild B6 mouse granule cells
Method: For puffing experiment, glass electrode (5-6 MΩ) filled with […] was positioned near to the patched granular cell and puffed briefly for 500 ms by Picospritzer III (Parker instrumentation) connected with MiniDigi (Molecular Device).
The magnitudes of GABA induced current with the NPPB application (2 and 5 min) are also shown.

Best1 channel = biological target: T1, Best1 channel (Mus musculus, UniProt O88870); type: cell-based; details: NPPB 50 μM; naïve GFAP-GFP mice; ramp protocol, Vh=−70 mV
T1 construct: from tissue; host or cells: mouse cerebellar slices / sections (Bergmann glial cells)
T1 sequence (O88870 1-551): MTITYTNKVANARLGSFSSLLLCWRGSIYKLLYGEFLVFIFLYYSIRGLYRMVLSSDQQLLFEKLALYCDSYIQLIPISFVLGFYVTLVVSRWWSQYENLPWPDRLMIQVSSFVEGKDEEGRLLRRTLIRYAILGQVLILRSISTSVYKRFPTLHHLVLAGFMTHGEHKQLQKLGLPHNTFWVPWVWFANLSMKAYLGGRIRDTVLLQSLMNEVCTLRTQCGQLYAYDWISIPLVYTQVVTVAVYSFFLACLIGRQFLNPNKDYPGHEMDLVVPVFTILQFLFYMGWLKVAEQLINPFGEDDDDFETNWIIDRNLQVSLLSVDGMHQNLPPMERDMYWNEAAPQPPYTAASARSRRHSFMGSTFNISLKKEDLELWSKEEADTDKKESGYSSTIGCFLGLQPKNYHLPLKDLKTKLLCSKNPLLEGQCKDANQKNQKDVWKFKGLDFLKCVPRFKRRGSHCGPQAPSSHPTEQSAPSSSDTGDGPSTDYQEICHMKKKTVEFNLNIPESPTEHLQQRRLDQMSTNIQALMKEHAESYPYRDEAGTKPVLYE
Method: as §1
For recording, slices were transferred to an electrophysiological recording chamber (RC-26G, Warner Instruments) which is continuously superfused with ASCF (artificial cerebrospinal fluid, sigma) solution (flow rate; 2 ml/min) and controlled by flower controller (Synaptosoft) and a vacuum pump (Charles Austen, model Capex 8C). […] Fluorescence images were viewed with mercury lamp (Olympus, U-RFL-T). […]

O=C(O)c1cc([N+](=O)[O-])ccc1NCCCc1ccccc1 [NPPB, 5-nitro-2(3-phenylpropylamino)-benzoic acid]
NPPB sensitive and Best1-mediated tonic GABA release as share of total GABAzine-sensitive current (cerebellar granule cells): about 70% | Tonic GABA current (cerebellar granule cells; bath application of 50 μM NPPB, 8 wks B6 mice): reduced | NPPB-sensitive component of tonic GABA current (cerebellar granule cells; naive mice, 50 μM NPPB): 18.95±2.47 pA | GABA response of GABAc expressing HEK293 cells (GABAc receptors): do not have significant impact | GABA-induced whole cell current (GABAA receptor): did not have any effect | Anion current in Bergmann glial cells (Best1 channel): decreased
